Laboratory results: ChEMBL document CHEMBL1201862, “PubChem BioAssay data set” (2004)
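Compound exposure: 48 hours, 5 concentrations, 96-well plates. Here, GI50 denotes the concentration required for 50% inhibition of growth.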 The source made the active and inactive calls. Rule as the data show it: active = GI50 up to about 1.1 µM and inactive = higher.

Tests used:
Test in all cases: DTP human tumour cell line panel, 48 h
MCF7 = test system: MCF7
MDA-MB-231 = test system: MDA-MB-231
MDA-N = test system: MDA-N
RPMI-8226 = test system: RPMI-8226
CAKI-1 = test system: CAKI-1
SK-MEL-28 = test system: SK-MEL-28
BT-549 = test system: BT-549
HCC 2998 = test system: HCC 2998
HL-60 = test system: HL-60
SNB-19 = test system: SNB-19
U-251 = test system: U-251
LOX IMVI = test system: LOX IMVI
Malme-3M = test system: Malme-3M
KM12 = test system: KM12
SNB-75 = test system: SNB-75
ACHN = test system: ACHN
UO-31 = test system: UO-31
SF-268 = test system: SF-268
IGROV-1 = test system: IGROV-1
NCI-H23 = test system: NCI-H23

Measured: GI50

COc1cc(/C=C2\N=C(c3ccccc3)N(c3nc4ccc(Sc5ccccc5)cc4[nH]3)C2=O)ccc1O
inactive: MCF7 17.5 µM | MDA-MB-231 25.6 µM | MDA-N 5.13 µM | RPMI-8226 16.7 µM | CAKI-1 23.9 µM | SK-MEL-28 21.2 µM | BT-549 20 µM | HCC 2998 15.8 µM | HL-60 11.2 µM | SNB-19 31.8 µM | U-251 19.4 µM | LOX IMVI 25.5 µM | Malme-3M 18 µM | KM12 15.2 µM | SNB-75 33.6 µM | ACHN 26.9 µM | UO-31 28.7 µM | SF-268 25.5 µM | IGROV-1 37.8 µM | NCI-H23 26.8 µM

CCOC(=O)C(Cc1ccc(N(CCCl)CCCl)cc1)NC(=O)CCCN1C(=O)CN=C(c2ccccc2)c2cc(Cl)ccc21 (stereo not given)
inactive: MCF7 8.53 µM | MDA-MB-231 22.1 µM | MDA-N 6.11 µM | RPMI-8226 3.48 µM | CAKI-1 15.2 µM | SK-MEL-28 3.03 µM | BT-549 41.9 µM | HCC 2998 12.4 µM | HL-60 2.21 µM | SNB-19 > 100 µM | U-251 27.3 µM | LOX IMVI 3.18 µM | Malme-3M 2.35 µM | KM12 25.5 µM | SNB-75 15.8 µM | ACHN 7.08 µM | UO-31 13.8 µM | SF-268 4.01 µM | IGROV-1 4.37 µM | NCI-H23 9.66 µM

C=C(C)C(=O)/N=C(\N)NC#N
inactive: MCF7 47.5 µM | MDA-MB-231 48.2 µM | MDA-N 39.4 µM | RPMI-8226 10.6 µM | CAKI-1 24.4 µM | SK-MEL-28 28.9 µM | BT-549 14.8 µM | HCC 2998 132 µM | HL-60 20 µM | SNB-19 182 µM | U-251 > 76.9 µM | LOX IMVI 33 µM | Malme-3M 24.8 µM | KM12 59 µM | SNB-75 67.9 µM | ACHN 138 µM | UO-31 > 62.7 µM | SF-268 27.1 µM | IGROV-1 > 46.9 µM | NCI-H23 72.3 µM

N=C(N)NS(=O)(=O)c1ccc(Nc2c3ccccc3nc3c(C(=O)NC(CO)(CO)CO)cccc23)cc1
inactive: MCF7 3.44 µM | MDA-MB-231 21.8 µM | MDA-N 35.6 µM | RPMI-8226 20.1 µM | CAKI-1 34.5 µM | SK-MEL-28 30.5 µM | BT-549 13.4 µM | HCC 2998 32.1 µM | HL-60 18.9 µM | SNB-19 28.1 µM | U-251 12.2 µM | LOX IMVI 18.7 µM | Malme-3M 19.4 µM | KM12 14.9 µM | SNB-75 2.3 µM | ACHN 11.1 µM | UO-31 27.5 µM | SF-268 19.5 µM | IGROV-1 37.6 µM | NCI-H23 36.5 µM
